Inhibition rate and T-lymphocyte percentage data for 2 molecules are collected here from patent US6893642B1, “Algae protein polysaccharide extraction and use thereof” (priority 1999, dated 2005).

Assay [1] concerns the target T1, PTK picked up from A431 cell containing the EGFR (Homo sapiens, UniProt P00533).
T1 construct: we used A431 cell containing the EGFR for picking up PTK; endogenous in cells; host or cells: A431 cells
Kind of assay: Phosphorylation of protein tyrosine kinase (PTK). Type of assay: biochemical. From the text: Epidermal growth factor receptor (EGFR), a PTK of receptor type, is a single-stranded trans-membrane glycoprotein consisting of 1186 amino acids, whose molecular weight is […], and exists extensively on the epithelial membrane of the mammals. The C end of the EGFR can recognize and activate many cellular substrates after phosphorylated, then effect on metabolization, growth and carcinogenesis of a cell. […] In our research, we used A431 cell containing the EGFR for picking up PTK, so as to observe the effect of the proteoglycan extract of spirulina on phosphorylation of PTK.

A further assay relates to mice injected with CTX. Kind of assay: T-lymphocyte test. Type of assay: in vivo. The conditions noted are these: positive control: CTX 10 mg/kg/d then water p.o. Here is the method: Mice, body weight of 18-22 g, were randomly divided into a blank control group, positive control group, a higher dose group and a lower dose group, with 10 mice per group. The mice in the treated groups were injected with CTX at a dose of 10 mg/kg/d, and then treated with proteoglycan extracts of Spirulina via p.o., at the same dose as above. The mice in the positive control group were treated with CTX at a dose of 10 mg/kg/d, and then treated with water via p.o. the mice in the control group only were treated with water via p.o. after the treatment was continuously taken for 10 days, the treatment was stopped for 2 days. Blood was harvested from eye sockets of the mice for lymphocyte slices. After incubation and dyeing, T-lymphocyte percentage was determined.

Molecules are shown by their SMILES.

T1 sequence (P00533 25-1210): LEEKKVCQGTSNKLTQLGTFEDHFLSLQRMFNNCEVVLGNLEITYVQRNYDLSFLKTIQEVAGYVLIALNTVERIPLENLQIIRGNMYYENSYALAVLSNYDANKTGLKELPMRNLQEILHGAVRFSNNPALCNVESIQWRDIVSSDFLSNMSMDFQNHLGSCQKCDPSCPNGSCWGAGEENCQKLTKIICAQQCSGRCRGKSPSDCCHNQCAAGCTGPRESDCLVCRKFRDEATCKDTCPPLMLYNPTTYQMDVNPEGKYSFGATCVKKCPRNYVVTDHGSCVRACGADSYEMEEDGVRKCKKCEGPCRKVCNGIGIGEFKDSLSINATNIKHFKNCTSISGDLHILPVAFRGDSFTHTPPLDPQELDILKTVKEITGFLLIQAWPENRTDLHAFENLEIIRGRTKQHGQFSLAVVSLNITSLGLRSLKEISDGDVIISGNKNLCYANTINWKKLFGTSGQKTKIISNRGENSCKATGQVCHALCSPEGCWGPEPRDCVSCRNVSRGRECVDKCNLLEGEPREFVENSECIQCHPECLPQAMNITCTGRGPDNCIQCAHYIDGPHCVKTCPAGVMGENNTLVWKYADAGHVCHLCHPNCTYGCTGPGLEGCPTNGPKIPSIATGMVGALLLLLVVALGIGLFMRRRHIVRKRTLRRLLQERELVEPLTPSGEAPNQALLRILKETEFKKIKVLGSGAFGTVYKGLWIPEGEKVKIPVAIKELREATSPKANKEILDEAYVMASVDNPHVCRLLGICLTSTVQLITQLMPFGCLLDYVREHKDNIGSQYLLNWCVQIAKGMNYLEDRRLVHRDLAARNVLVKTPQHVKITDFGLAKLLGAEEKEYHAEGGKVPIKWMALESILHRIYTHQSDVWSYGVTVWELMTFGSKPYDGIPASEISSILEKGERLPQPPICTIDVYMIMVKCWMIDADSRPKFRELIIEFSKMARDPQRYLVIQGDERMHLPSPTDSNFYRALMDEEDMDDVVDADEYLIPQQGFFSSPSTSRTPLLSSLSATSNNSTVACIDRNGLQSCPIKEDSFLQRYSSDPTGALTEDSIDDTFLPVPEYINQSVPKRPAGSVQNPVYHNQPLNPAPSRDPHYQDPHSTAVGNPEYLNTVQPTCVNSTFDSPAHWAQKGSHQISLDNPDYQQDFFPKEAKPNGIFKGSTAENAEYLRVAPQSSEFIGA

As for `N#CC(C#N)=Cc1cc(O)c(O)c(O)c1` [tyrphostin 25], the inhibition rate result in assay [1] (Results 1, positive control, 2.5 mM) was “Positive control: 2.5 mM tyrphostin 25, inhibition rate: 100%”; in assay [1] (Results 2, positive control, 0.25 mM), “Positive control: 0.25 mM tyrphostin 25, inhibition rate: 86.1%”; in assay [1] (Results 3, positive control, 0.25 mM) it was “Positive control: 0.25 mM tyrphostin 25, inhibition rate: 80.5%”.
On to `O=P1(N(CCCl)CCCl)NCCCO1` (stereo not shown) [CTX], for which the T-lymphocyte percentage with mice injected with CTX is given as 25.6 ± 2.51%.
